Experimental data published in patent US5852210A, “Cinnamic acid derivatives” (G. D. Searle & Co., priority 1997, dated 1998).
Counter-ions that a name gives are not always drawn.

Key:
[1] = target: T1, Human vitronectin receptor (αv β3) (Homo sapiens, UniProt P05106+P06756); assay: Vitronectin adhesion assay (solid phase receptor assay, αvβ3); type: binding; conditions: inhibition of binding of biotinylated human vitronectin (1 nM) to purified receptor; Table I; read-out: AvB3 IC50
T1 construct: Human vitronectin receptor (αv β3) was purified from human placenta; from tissue; host or cells: human placenta
Method in brief: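 Placental αvβ3 (100 ng/well) coated in TBS with 1 mM Ca, Mg, Mn, pH 7.4, then compound competed with 1 nM biotinylated vitronectin for 2 h at room temperature (top compound concentration 1.0×10^-4 M). Bound ligand detected with HRP anti-biotin/OPD at 450 nm; values normalized to maximum binding, four-parameter curve fit.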

[2] = target: T2, Human fibrinogen receptor (αIIb β3) (Homo sapiens, UniProt P05106+P08514); assay: Purified IIb/IIIa receptor assay (solid phase receptor assay); conditions: inhibition of binding of biotinylated human vitronectin (1 nM) to purified receptor; Table I
T2 construct: Human fibrinogen receptor (αIIb β3) was purified from outdated platelets; from tissue; host or cells: human outdated platelets
Method in brief: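 Platelet-purified αIIbβ3 (100 ng/well) coated overnight at 4 °C, then competed 2 h at room temperature against 1 nM biotinylated human vitronectin in TBS with 1.0 mM Ca/Mg/Mn, pH 7.4, 1% BSA; top compound 1.0×10^-4 M. Bound ligand detected by HRP anti-biotin, A450, normalized to maximum binding, four-parameter fit.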

T1 sequence (P06756 31-889 limits assumed): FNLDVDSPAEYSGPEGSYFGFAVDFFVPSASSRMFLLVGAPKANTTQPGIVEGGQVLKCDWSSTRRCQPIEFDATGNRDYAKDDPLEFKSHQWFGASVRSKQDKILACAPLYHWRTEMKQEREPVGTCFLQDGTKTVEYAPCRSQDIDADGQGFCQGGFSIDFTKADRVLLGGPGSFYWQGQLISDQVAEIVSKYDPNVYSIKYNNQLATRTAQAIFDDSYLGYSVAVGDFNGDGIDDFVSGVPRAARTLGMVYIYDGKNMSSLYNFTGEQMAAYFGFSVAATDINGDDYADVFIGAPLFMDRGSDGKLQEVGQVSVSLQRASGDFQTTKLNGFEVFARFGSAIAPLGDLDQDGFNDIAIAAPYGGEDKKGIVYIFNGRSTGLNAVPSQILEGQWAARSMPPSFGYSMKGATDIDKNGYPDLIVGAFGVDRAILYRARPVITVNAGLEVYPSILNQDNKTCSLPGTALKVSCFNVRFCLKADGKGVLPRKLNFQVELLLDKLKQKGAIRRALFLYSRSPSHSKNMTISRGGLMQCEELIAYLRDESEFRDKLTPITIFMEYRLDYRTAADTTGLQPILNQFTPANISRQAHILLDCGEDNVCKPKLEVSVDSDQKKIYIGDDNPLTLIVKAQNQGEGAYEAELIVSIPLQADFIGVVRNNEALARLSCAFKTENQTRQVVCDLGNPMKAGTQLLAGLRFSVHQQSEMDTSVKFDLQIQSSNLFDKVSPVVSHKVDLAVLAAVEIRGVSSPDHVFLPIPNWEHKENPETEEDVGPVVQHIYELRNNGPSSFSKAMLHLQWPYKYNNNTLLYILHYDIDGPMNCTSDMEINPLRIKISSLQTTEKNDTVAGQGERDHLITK
T1 sequence (P06756 891-1048 limits assumed): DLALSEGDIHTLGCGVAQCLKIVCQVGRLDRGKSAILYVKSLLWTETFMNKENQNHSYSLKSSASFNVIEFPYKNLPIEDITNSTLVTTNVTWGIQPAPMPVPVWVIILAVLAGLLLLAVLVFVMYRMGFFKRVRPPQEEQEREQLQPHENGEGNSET
T1 sequence (P05106 27-788): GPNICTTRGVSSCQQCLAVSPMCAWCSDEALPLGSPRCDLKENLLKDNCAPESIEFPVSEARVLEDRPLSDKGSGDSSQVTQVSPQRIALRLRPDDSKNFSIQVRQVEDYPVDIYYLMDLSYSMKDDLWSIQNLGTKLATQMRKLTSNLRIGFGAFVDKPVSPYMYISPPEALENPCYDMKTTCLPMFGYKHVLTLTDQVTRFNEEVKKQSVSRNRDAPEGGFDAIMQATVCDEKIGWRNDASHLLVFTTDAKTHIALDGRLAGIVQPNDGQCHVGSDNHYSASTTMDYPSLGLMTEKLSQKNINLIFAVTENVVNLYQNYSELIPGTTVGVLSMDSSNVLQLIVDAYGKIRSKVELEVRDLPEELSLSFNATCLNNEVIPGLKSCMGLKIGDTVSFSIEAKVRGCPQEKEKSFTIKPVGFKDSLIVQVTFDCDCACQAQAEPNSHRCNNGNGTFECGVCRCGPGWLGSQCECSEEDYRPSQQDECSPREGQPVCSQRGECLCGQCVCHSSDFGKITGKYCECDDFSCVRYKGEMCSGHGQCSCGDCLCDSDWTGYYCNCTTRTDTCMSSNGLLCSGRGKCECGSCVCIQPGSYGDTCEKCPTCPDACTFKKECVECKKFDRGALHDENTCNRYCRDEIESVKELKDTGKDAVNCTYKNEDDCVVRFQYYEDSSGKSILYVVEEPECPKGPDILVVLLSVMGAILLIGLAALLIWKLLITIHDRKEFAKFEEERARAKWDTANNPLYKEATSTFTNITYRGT
T2 sequence (P08514 32-887 limits assumed): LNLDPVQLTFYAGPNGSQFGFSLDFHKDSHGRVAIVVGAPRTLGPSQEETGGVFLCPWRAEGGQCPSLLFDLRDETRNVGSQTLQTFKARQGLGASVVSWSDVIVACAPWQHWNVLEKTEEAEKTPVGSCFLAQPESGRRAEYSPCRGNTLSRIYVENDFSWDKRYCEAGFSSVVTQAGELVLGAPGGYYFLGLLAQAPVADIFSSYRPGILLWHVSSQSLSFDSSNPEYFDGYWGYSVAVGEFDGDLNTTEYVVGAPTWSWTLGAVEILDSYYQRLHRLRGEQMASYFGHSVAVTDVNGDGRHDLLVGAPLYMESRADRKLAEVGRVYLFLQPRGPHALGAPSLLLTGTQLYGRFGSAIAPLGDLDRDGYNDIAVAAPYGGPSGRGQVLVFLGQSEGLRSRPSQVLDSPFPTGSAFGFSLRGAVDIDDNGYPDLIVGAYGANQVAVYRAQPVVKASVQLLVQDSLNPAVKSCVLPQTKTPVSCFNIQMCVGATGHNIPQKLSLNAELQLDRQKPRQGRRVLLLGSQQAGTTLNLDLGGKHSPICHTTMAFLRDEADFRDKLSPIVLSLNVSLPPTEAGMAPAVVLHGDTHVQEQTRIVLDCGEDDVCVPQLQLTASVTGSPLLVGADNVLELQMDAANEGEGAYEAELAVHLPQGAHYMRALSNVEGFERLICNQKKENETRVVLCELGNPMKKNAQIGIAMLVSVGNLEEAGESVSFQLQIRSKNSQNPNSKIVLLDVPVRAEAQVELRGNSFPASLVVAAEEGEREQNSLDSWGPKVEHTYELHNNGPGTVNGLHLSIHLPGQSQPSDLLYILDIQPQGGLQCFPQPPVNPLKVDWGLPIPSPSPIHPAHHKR
T2 sequence (P08514 891-1039 limits assumed): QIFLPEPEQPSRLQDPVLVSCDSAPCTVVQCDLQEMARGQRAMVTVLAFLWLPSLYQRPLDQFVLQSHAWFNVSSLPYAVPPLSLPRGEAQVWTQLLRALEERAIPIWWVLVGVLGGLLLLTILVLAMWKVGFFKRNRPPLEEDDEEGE
T2 sequence (P05106 27-788): as the sequence (P05106 27-788) above

SMILES	IC50 [1] [nM]	IC50 [2] [nM]
O=C(O)/C=C/c1cccc(CNC(=O)c2cccc(Nc3ncccn3)c2)c1 [Example 73, 3-[3-[[[[3-[(2-pyrimidinyl)amino]phenyl]carbonyl]amino]methyl]phenyl]propenoic acid, trifluoroacetate salt]	20400	66000
CC/C(=C\C(=O)O)c1cccc(CNC(=O)c2cccc(NC(=N)N)c2)c1 [Example 74, 3-[3-[[[[3-[(aminoiminomethyl)amino]phenyl]carbonyl]amino]methyl]phenyl]-2E-pentenoic acid, trifluoroacetate salt hydrate]	2690	> 100000
N=C(N)Nc1cccc(C(=O)NCc2cccc(C(=CC(=O)O)c3cc(Cl)cc(Cl)c3)c2)c1 [Example 75, 3-[3-[[[[3-[(aminoiminomethyl)amino]phenyl]carbonyl]amino]methyl]phenyl]-3-(3,5-dichlorophenyl) propenoic acid, trifluoroacetate salt]	42700	> 100000
O=C(O)/C=C/c1ccc2c(c1)CCN2C(=O)c1cccc(NC2=NCCN2)c1 [Example 77, 3-[1-[[3-[(4,5-dihydro-1H-imidazol-2-yl)amino]phenyl]carbonyl]2,3-dihydro-1H-indol-5-yl]propenoic acid, trifluoroacetate salt]	12.3	231
O=C(O)/C=C/c1ccc2c(c1)CCCN2C(=O)c1cccc(NC2=NCCCN2)c1 [Example 78, 3-[1-[[3-[(1,4,5,6-tetrahydropyrimidin-2-yl)amino]phenyl]carbonyl]-1,2,3,4-tetrahydro-quinolin-6-yl]propenoic acid, trifluoroacetate salt]	56.3	1790
N=C(N)Nc1cccc(C(O)CNc2cccc(/C=C/C(=O)O)c2)c1 (centres unmarked) [Example 81, 3-[3-[[2-[3-[(aminoiminomethyl)amino]phenyl]-2-hydroxyethyl]amino]phenyl]propenoic acid, (bis)trifluoroacetate salt hydrate]	54.3	5020
O=C(O)/C=C/c1cccc(C(=O)COc2cccc(NC3=NCCN3)c2)c1 [Example 83, 3-[3-[2-[3-[(4,5-dihydro-1H-imidazol-2-yl)amino]phenoxy]acetyl]phenyl]propenoic acid, trifluoroacetate salt]	21.7	10000
N=C(N)Nc1cccc(/C=C/C(=O)c2ccc(F)c(/C=C/C(=O)O)c2)c1 [Example 84, 3-[5-[3-[3-[(aminoiminomethyl)amino]phenyl]-1-oxopropenyl]-2-fluorophenyl]propenoic acid, trifluoroacetate salt]	891	35200
O=C(O)C=Cc1cc(C(=O)C=Cc2cccc(C3=NCCCN3)c2)ccc1F [Example 85, 3-[5-[3-[3-[(1,4,5,6-tetrahydrolpyrimidin-2-yl)]phenyl]-1-oxopropenyl]-2-fluorophenyl]propenoic acid, trifluoroacetate salt]	92	20800
COc1ccc(/C=C/C(=O)O)cc1C(=O)/C=C/c1cccc(NC(=N)N)c1 [Example 86, 3-[3-[3-[3-[(aminoiminomethyl)amino]phenyl]-1-oxopropenyl]-4-methoxyphenyl]propenoic acid, trifluoroacetate salt]	580	563
COc1ccc(/C=C/C(=O)O)cc1C(=O)/C=C/c1cccc(NC2=NCCN2)c1 [Example 87, 3-[3-[3-[3-[(4,5-dihydro-1H-imidazol-2-yl)amino]phenyl]-1-oxopropenyl]-4-methoxyphenyl]propenoic acid, trifluoroacetate salt]	90.5	2640
N=C(N)Nc1cccc(/C=C/C(=O)c2cccc(/C=C/C(=O)O)c2)c1 [Example 88, 3-[3-[3-[3-[(aminoiminomethyl)amino]phenyl]-1-oxopropenyl]phenyl]propenoic acid, trifluoroacetate salt]	37.3	2610
N=C(N)Nc1cccc(C(=O)/C=C/c2cccc(/C=C/C(=O)O)c2)c1 [Example 89, 3-[3-[3-[3-[(aminoiminomethyl)amino]phenyl]-3-oxopropenyl]phenyl]propenoic acid, trifluoroacetate salt hydrate]	196	1260
N=C(N)Nc1cccc(C(=O)CCc2cccc(/C=C/C(=O)O)c2)c1 [Example 91, 3-[3-[3-[3-[(aminoiminomethyl)amino]phenyl]-3-oxopropyl]phenyl]propenoic acid, trifluoroacetate salt hydrate]	1270	8670
N=C(N)Nc1cccc(CCC(=O)c2cccc(/C=C/C(=O)O)c2)c1 [Example 92, 3-[3-[3-[3-[(aminoiminomethyl)amino]phenyl]-1-oxopropyl]phenyl]propenoic acid, trifluoroacetate salt]	48.9	4010
O=C(O)/C=C/c1cccc(CCC(=O)c2cccc(NC3=NCCCN3)c2)c1 [Example 95, 3-[3-[3-oxo-3-[3-[(1,4,5,6-tetrahydropyrimidin-2-yl)amino]phenyl]propyl]phenyl]propenoic acid, trifluoroacetate salt hydrate]	58.5	11800
O=C(O)/C=C/c1ccc(/C=C/c2cccc(NC3=NCCN3)c2)cc1 [Example 99, 3-[4-[2-[3-[(4,5-dihydro-1H-imidazol-2-yl)amino]phenyl]ethenyl]phenyl]propenoic acid, trifluoroacetate salt]	26.5	722

Continued by falling IC50 [1], values first:

IC50 [1] [nM]	IC50 [2] [nM]	SMILES
12.1	4950	CC(C)COC(=O)N1CCN=C1Nc1cccc(C(=O)NCc2cccc(/C=C/C(=O)O)c2)c1 [Example 65, 3-[3-[[[[3-[[4,5-dihydro-1-[(2-methylpropoxy)carbonyl]-1H-imidazol-2-yl]amino]phenyl]carbonyl]amino]methyl]phenyl]propenoic acid, monohydrochloride hydrate]
12	415	N=C(N)Nc1cccc(C(=O)COc2cccc(/C=C/C(=O)O)c2)c1 [Example 79, 3-[3-[2-[3-[(aminoimino)methyl]amino]phenyl]-2-oxoethoxy]phenyl]propenoic acid, trifluoroacetate salt]
11.3	2710	O=C(O)/C=C/c1cccc(/C=C/C(=O)c2cccc(NC3=NCCCN3)c2)c1 [Example 94, 3-[3-[3-oxo-3-[3-[(1,4,5,6-tetrahydropyrimidin-2-yl)amino]phenyl]-1-propenyl]phenyl]propenoic acid, trifluoroacetate salt]
8.8	825	O=C(O)/C=C/c1ccc2c(c1)CCN2C(=O)c1cccc(NC2=NCCCN2)c1 [Example 76, 3-[2,3-dihydro-1-[[3-[(1,4,5,6-tetrahydropyrimidin-2-yl)amino]phenyl]carbonyl]-1H-indol-5-yl]propenoic acid, trifluoroacetate salt]
6.98	2320	O=C(O)/C=C/c1cccc(C(=O)/C=C/c2cccc(NC3=NCCCN3)c2)c1 [Example 90, 3-[3-[1-oxo-3-[3-[(1,4,5,6-tetrahydropyrimidin-2-yl)amino]phenyl]-2-propenyl]phenyl]propenoic acid, trifluoroacetate salt]
6.1	5990	O=C(O)/C=C/c1cccc(C(=O)CCc2cccc(NC3=NCCCN3)c2)c1 [Example 93, 3-[3-[1-oxo-3-[3-[(1,4,5,6-tetrahydropyrimidin-2-yl)amino]phenyl]propyl]phenyl]propenoic acid, trifluoroacetate salt]
5.08	222	O=C(O)/C=C/c1ccc(/C=C/c2cccc(NC3=NCCCN3)c2)cc1 [Example 98, 3-[4-[2-[3-[(1,4,5,6-tetrahydropyrimidin-2-yl)amino]phenyl]ethenyl]phenyl]propenoic acid, trifluoroacetate salt]
2.27	12000	O=C(O)/C=C/c1cccc(CNC(=O)c2cccc(NC3=NCCN3)c2)c1 [Example 67, 3-[3-[[[[3-[(4,5-dihydro-1H-imidazol-2-yl)amino]phenyl]carbonyl]amino]methyl]phenyl]propenoic acid, monohydrochloride hydrate]
1.78	38900	O=C(O)/C=C/c1cccc(CNC(=O)c2cc(NC3=NCCCN3)cc(C(F)(F)F)c2)c1 [Example 69, 3-[3-[[[[3-[(1,4,5,6-tetrahydropyrimidin-2-yl)amino]-5-(trifluoromethyl)phenyl]carbonyl]amino]methyl]phenyl]propenoic acid, dihydrochloride hydrate]
1.33	18500	O=C(O)/C=C/c1cccc(CNC(=O)c2cc(NC3=NCCN3)cc(C(F)(F)F)c2)c1 [Example 71, 3-[3-[[[[3-[(4,5-dihydro-1H-imidazol-2-yl)amino]-5-(trifluoromethyl)phenyl]carbonyl]amino]methyl]phenyl]propenoic acid, monohydrochloride hydrate]
1.02	3470	O=C(O)/C=C/c1cccc(OCC(=O)c2cccc(NC3=NCCN3)c2)c1 [Example 80, 3-[3-[2-[3-[(4,5-dihydro-1H-imidazol-2-yl)amino]phenyl]-2-oxoethoxy]phenyl]propenoic acid, trifluoroacetate salt]
